Where two headings read alike, the source gives them in different places.
Key:
Format in all cases: cell-based
CCRF-CEM cells = assay: Cell viability assay (CellTiter Glo, 72 hours) in CEM cells
Description: (§1) KG1a (CCL-246.1, ATCC) and CCRF-CEM (CCL-199, ATCC) cells were grown in RPMI-1640 media containing 10% FBS in T-75 flasks to a density of 1×10^6 cells per mL. Exponentially gown cells were used for the assay. Day 1: 7.5×10^3 cells were seeded in each well of 96 well plate. Day 2: Cells were treated with serial dilutions of each compound (starting 20 uM) or with DMSO as control for 72 hours. Day 5: CellTiter Glo (G9241, Promega) was added to the media of each well and measured by plate reader (Synergy 4, Biotek). Data analysis: Using GraphPad Prism 7 (GraphPad).

DNMT-1 = assay: Western blot analysis of DNMT-1 in CEM cells; conditions: DNMT-1 depletion in CEM cells, 96 hours
Description: Cells were treated with serial dilutions of each compound (starting 100 uM for HCT-116 and NCI-H23 cells, and 20 uM for KG-1a and CCRF-CEM cells) or with DMSO as control for 96 hours. Cell lysates were collected and proteins were separated with a SDS-PAGE gel, transferred to a nitrocellulose membrane, blocked in 5% non-fat milk in TBS-T, and probed with anti DNMT-1 (1:7000) rabbit polyclonal antibodies (cat #ab19905, Abcam) in 5% non-fat milk in TBS-T overnight. Membranes were washed three times with TBS-T. The anti-rabbit IgG (7074p2, Cell Signaling) secondary antibody was added at a concentration of 1:5000 in 5% non-fat milk in TBS-T for two hours in room temperature. Membranes were then washed three times with TBS-T, 5 minutes each time. Membranes were then incubated with SuperSignal West Pico Chemiluminescent Substrate (#34080 Thermo) and exposed onto film. Membranes were stripped with stripping buffer (#21059, Thermo) and re-probed with mouse anti tubulin 1:10,000 (T9026, Sigma) and anti-mouse IgG 1:5,000 (70′76p2, Cell Signaling).

KG-1a cells = assay: Cell viability assay (CellTiter Glo, 72 hours) in KG-1a cells
Description: as §1

[1] = Homo sapiens, CCRF-CEM, 72 h, read-out: Cell Line IC50 (μM) CEM
[2] = Homo sapiens, KG-1a, 72 h, read-out: Cell Line IC50 (μM) KG-1a
[3] = read-out: Cell Line IC50 (μM) CEM
[4] = read-out: Cell Line IC50 (μM) KG-1a

Structure (SMILES)	IC50 (CCRF-CEM cells; [1]) [µM]	IC50 (KG-1a cells; [2]) [µM]	IC50 (DNMT-1) [nM]	further results
C[C@H](NP(=O)(OC[C@H]1S[C@@H](n2cnc(N)nc2=O)CC1O)Oc1ccccc1)C(=O)OC1CCCC1 (single isomer, unassigned) [Compound 8 Diastereomer 1]	2.08	0.6	–	IC50 (DNMT-1; listed as 8 Diastereomer 1): 330 nM
C[C@H](NP(=O)(OC[C@H]1S[C@@H](n2cnc(N)nc2=O)CC1O)Oc1ccccc1)C(=O)OC1CCCC1 (single isomer, unassigned) [Compound 8 Diastereomer 2]	–	–	–	IC50 (CCRF-CEM cells; [3]): 1.65 µM; IC50 (DNMT-1; listed as 8 Diastereomer 2): 450 nM; IC50 (KG-1a cells; [4]): 1.04 µM
C[C@H](NP(=O)(OC[C@H]1S[C@@H](n2cnc(N)nc2=O)CC1O)Oc1cccc2ccccc12)C(=O)OCc1ccccc1 (single isomer, unassigned) [Compound 9 Diastereomer 1]	–	–	–	IC50 (CCRF-CEM cells; listed as 9 Diastereomer 1, read-out: Cell Line IC50 (μM) CEM): 0.5 µM; IC50 (DNMT-1; listed as 9 Diastereomer 1): 300 nM; IC50 (KG-1a cells; listed as 9 Diastereomer 1, read-out: Cell Line IC50 (μM) KG-1a): 1.1 µM
C[C@H](NP(=O)(OC[C@H]1S[C@@H](n2cnc(N)nc2=O)CC1O)Oc1cccc2ccccc12)C(=O)OCc1ccccc1 (single isomer, unassigned) [Compound 9 Diastereomer 2]	–	–	–	IC50 (CCRF-CEM cells; listed as 9 Diastereomer 2, read-out: Cell Line IC50 (μM) CEM): 0.2 µM; IC50 (DNMT-1; listed as 9 Diastereomer 2): 1400 nM; IC50 (KG-1a cells; listed as 9 Diastereomer 2, read-out: Cell Line IC50 (μM) KG-1a): 0.4 µM
CC(C)COC(=O)[C@H](C)NP(=O)(OC[C@H]1S[C@@H](n2cnc(N)nc2=O)CC1O)Oc1cccc2ccccc12 (single isomer, unassigned) [Compound 10 Diastereomer 1]	0.2	0.3	–	IC50 (DNMT-1; listed as 10 Diastereomer 1): 600 nM
CC(C)COC(=O)[C@H](C)NP(=O)(OC[C@H]1S[C@@H](n2cnc(N)nc2=O)CC1O)Oc1cccc2ccccc12 (single isomer, unassigned) [Compound 10 Diastereomer 2]	–	–	–	IC50 (CCRF-CEM cells; [3]): 0.2 µM; IC50 (DNMT-1; listed as 10 Diastereomer 2): 800 nM; IC50 (KG-1a cells; [4]): 0.3 µM
CCC(CC)COC(=O)[C@H](C)NP(=O)(OC[C@H]1S[C@@H](n2cnc(N)nc2=O)C[C@@H]1O)Oc1cccc2ccccc12 (single isomer, unassigned) [Compound 11 Diastereomer 1]	0.2	0.6	500	–
CCC(CC)COC(=O)[C@H](C)NP(=O)(OC[C@H]1S[C@@H](n2cnc(N)nc2=O)CC1O)Oc1cccc2ccccc12 (single isomer, unassigned) [Compound 11 Diastereomer 2]	0.08	0.6	500	–
CC(C)OC(=O)[C@H](C)NP(=O)(OC[C@H]1S[C@@H](n2cnc(N)nc2=O)C[C@@H]1O)Oc1cccc2ccccc12 (single isomer, unassigned) [Compound 12 Diastereomer 1]	–	0.6	–	IC50 (CCRF-CEM cells; listed as 12 Diastereomer 1, read-out: Cell Line IC50 (μM) CEM): 0.3 µM; IC50 (DNMT-1; listed as 12 Diastereomer 1): 800 nM
CC(C)OC(=O)[C@H](C)NP(=O)(OC[C@H]1S[C@@H](n2cnc(N)nc2=O)C[C@@H]1O)Oc1cccc2ccccc12 (single isomer, unassigned) [Compound 12 Diastereomer 2]	–	–	–	IC50 (CCRF-CEM cells; listed as 12 Diastereomer 2, read-out: Cell Line IC50 (μM) CEM): 0.1 µM; IC50 (DNMT-1; listed as 12 Diastereomer 2): 1000 nM; IC50 (KG-1a cells; [4]): 0.7 µM
C[C@H](N[P@](=O)(OC[C@H]1S[C@@H](n2cnc(N)nc2=O)C[C@@H]1O)Oc1ccccc1)C(=O)OCc1ccccc1 [Compound 1, Benzyl ((S)-(((2R,3S,5R)-5-(4-amino-2-oxo-1,3,5-triazin-1(2H)-yl)-3-hydroxytetrahydrothiophen-2-yl)methoxy)(phenoxy)phosphoryl)-L-alaninate]	0.13	0.92	1200	–
CC(C)COC(=O)[C@H](C)N[P@](=O)(OC[C@H]1S[C@@H](n2cnc(N)nc2=O)C[C@@H]1O)Oc1ccccc1 [Compound 2, Isobutyl ((S)-(((2R,3S,5R)-5-(4-amino-2-oxo-1,3,5-triazin-1(2H)-yl)-3-hydroxytetrahydrothiophen-2-yl)methoxy)(phenoxy)phosphoryl)-L-alaninate]	0.24	1.34	800	–
CC(C)OC(=O)[C@H](C)N[P@](=O)(OC[C@H]1S[C@@H](n2cnc(N)nc2=O)C[C@@H]1O)Oc1ccccc1 [Compound 4, Isopropyl ((S)-(((2R,3S,5R)-5-(4-amino-2-oxo-1,3,5-triazin-1(2H)-yl)-3-hydroxytetrahydrothiophen-2-yl)methoxy)(phenoxy)phosphoryl)-L-alaninate]	0.24	0.57	850	–
COC(=O)[C@H](C)N[P@](=O)(OC[C@H]1S[C@@H](n2cnc(N)nc2=O)C[C@@H]1O)Oc1ccccc1 [Compound 5, Methyl ((S)-(((2R,3S,5R)-5-(4-amino-2-oxo-1,3,5-triazin-1(2H)-yl)-3-hydroxytetrahydrothiophen-2-yl)-methoxy)(phenoxy)-phosphoryl)-L-alaninate]	2.06	1.67	610	–
CCOC(=O)[C@H](C)N[P@](=O)(OC[C@H]1S[C@@H](n2cnc(N)nc2=O)C[C@@H]1O)Oc1ccccc1 [Compound 6, Ethyl ((S)-(((2R,3S,5R)-5-(4-amino-2-oxo-1,3,5-triazin-1(2H)-yl)-3-hydroxytetrahydrothiophen-2-yl)-methoxy)(phenoxy)-phosphoryl)-L-alaninate]	1.73	0.31	350	–
C[C@H](N[P@](=O)(OC[C@H]1S[C@@H](n2cnc(N)nc2=O)C[C@@H]1O)Oc1ccccc1)C(=O)OCc1ccc([N+](=O)[O-])o1 [Compound 7, (5-nitrofuran-2-yl)methyl ((S)-(((2R,3S,5R)-5-(4-amino-2-oxo-1,3,5-triazin-1(2H)-yl)-3-hydroxytetrahydro-thiophen-2-yl)-methoxy)(phenoxy)-phosphoryl)-L-alaninate]	1.71	0.76	220	–
CCC(CC)COC(=O)[C@H](C)N[P@](=O)(OC[C@H]1S[C@@H](n2ccc(N)nc2=O)CC1O)Oc1ccccc1 (stereo partly drawn) [Compound 14]	0.15	0.62	1000	–
CC(C)OC(=O)[C@H](C)N[P@](=O)(OC[C@H]1S[C@@H](n2ccc(N)nc2=O)CC1O)Oc1ccccc1 (stereo partly drawn) [Compound 15]	0.37	0.9	330	–
Nc1ccn([C@H]2C[C@@H](O)[C@@H](CO)S2)c(=O)n1 [T-dCyd, 4-amino-1-[(2R,4R,5R)-4-hydroxy-5-(hydroxymethyl)thiolan-2-yl]pyrimidin-2-one, reference compound]	–	–	470	IC50 (CCRF-CEM cells; Homo sapiens, CCRF-CEM, read-out: Cell Line IC50 (μM) CEM): 0.08 µM; IC50 (KG-1a cells; Homo sapiens, read-out: Cell Line IC50 (μM) KG-1a): 0.48 µM

— US20210363170A1, “4'-THIO-NUCLEOTIDE AND -NUCLEOSIDE PRODRUGS FOR THE TREATMENT OF CANCER” (Southern Research Institute, priority 2018, published 2021)
